Converted amounts (≈) assume the structure as drawn.
Tests used:
Type in all cases: functional
[1] = tested on: Acinetobacter baumannii; test: Antimicrobial activity against Acinetobacter baumannii ATCC 19606 after 18 to 20 hrs by microbroth dilution method; conditions: ATCC 19606 = CIP 70.34 = JCM 6841
[2] = tested on: Pseudomonas aeruginosa; test: Antimicrobial activity against Pseudomonas aeruginosa PAO1 after 18 to 20 hrs by microbroth dilution method
[3] = tested on: Streptococcus pyogenes; test: Antimicrobial activity against Streptococcus pyogenes ATCC 700294 after 18 to 20 hrs by microbroth dilution method; conditions: M1 GAS
[4] = tested on: Proteus mirabilis; test: Antimicrobial activity against Proteus mirabilis ATCC 25933 after 18 to 20 hrs by microbroth dilution method
[5] = tested on: Bacillus cereus; test: Antimicrobial activity against Bacillus cereus ATCC 14579 after 18 to 20 hrs by microbroth dilution method
[6] = tested on: Enterococcus faecalis; test: Antimicrobial activity against Enterococcus faecalis ATCC 33186 after 18 to 20 hrs by microbroth dilution method
[7] = tested on: Bacillus subtilis; test: Antimicrobial activity against Bacillus subtilis ATCC 23857 after 18 to 20 hrs by microbroth dilution method
[8] = tested on: Staphylococcus aureus; test: Antimicrobial activity against methicillin-susceptible Staphylococcus aureus ATCC 29213 after 18 to 20 hrs by microbroth dilution method
[9] = tested on: Stenotrophomonas maltophilia; test: Antimicrobial activity against Stenotrophomonas maltophilia ATCC 700475 after 18 to 20 hrs by microbroth dilution method
[10] = tested on: Enterobacter cloacae; test: Antimicrobial activity against Enterobacter cloacae ATCC 13047 after 18 to 20 hrs by microbroth dilution method; conditions: subsp. cloacae ATCC 13047
[11] = tested on: Escherichia coli; test: Antimicrobial activity against tolC deficient Escherichia coli JW5503-1 after 18 to 20 hrs by microbroth dilution method
[12] = tested on: Klebsiella pneumoniae; test: Antimicrobial activity against Klebsiella pneumoniae ATCC 33495 after 18 to 20 hrs by microbroth dilution method
[13] = tested on: Streptococcus pneumoniae; test: Antimicrobial activity against Streptococcus pneumoniae R6 after 18 to 20 hrs by microbroth dilution method
[14] = tested on: Bacillus anthracis; test: Antimicrobial activity against Bacillus anthracis Sterne 34F2 after 18 to 20 hrs by microbroth dilution method
[15] = tested on: Escherichia coli; test: Antimicrobial activity against Escherichia coli BW25113 after 18 to 20 hrs by microbroth dilution method
[16] = tested on: Staphylococcus aureus; test: Antimicrobial activity against methicillin-susceptible Staphylococcus aureus NRS70 after 18 to 20 hrs by microbroth dilution method
[17] = tested on: Escherichia coli; test: Antimicrobial activity against Escherichia coli isolate SJ 4 after 18 to 20 hrs by microbroth dilution method
[18] = tested on: Klebsiella pneumoniae; test: Antimicrobial activity against Klebsiella pneumoniae isolate SJ 1 after 18 to 20 hrs by microbroth dilution method
[19] = tested on: Escherichia coli; test: Antimicrobial activity against Escherichia coli isolate SJ 6 after 18 to 20 hrs by microbroth dilution method
[20] = tested on: Klebsiella pneumoniae; test: Antimicrobial activity against Klebsiella pneumoniae isolate SJ 3 after 18 to 20 hrs by microbroth dilution method
[21] = tested on: Escherichia coli; test: Antimicrobial activity against Escherichia coli isolate SJ 5 after 18 to 20 hrs by microbroth dilution method
[22] = tested on: Escherichia coli; test: Antimicrobial activity against Escherichia coli isolate SJ 1 after 18 to 20 hrs by microbroth dilution method
[23] = tested on: Klebsiella pneumoniae; test: Antimicrobial activity against Klebsiella pneumoniae isolate SJ 2 after 18 to 20 hrs by microbroth dilution method
[24] = tested on: Escherichia coli; test: Antimicrobial activity against Escherichia coli isolate SJ 3 after 18 to 20 hrs by microbroth dilution method
[25] = tested on: Escherichia coli; test: Antimicrobial activity against Escherichia coli ATCC 35218 expressing TEM-1 beta lactamases after 18 to 20 hrs by microbroth dilution method
[26] = tested on: Klebsiella pneumoniae; test: Antimicrobial activity against Klebsiella pneumoniae isolate SJ 4 after 18 to 20 hrs by microbroth dilution method
[27] = tested on: Klebsiella pneumoniae; test: Antimicrobial activity against Klebsiella pneumoniae isolate SJ 5 after 18 to 20 hrs by microbroth dilution method
[28] = tested on: Escherichia coli; test: Antimicrobial activity against Escherichia coli isolate SJ 2 after 18 to 20 hrs by microbroth dilution method
[29] = tested on: Escherichia coli; test: Antimicrobial activity against Escherichia coli ATCC 25922 after 18 to 20 hrs by microbroth dilution method

Compound	MIC [1] [µg/mL]	MIC [2] [µg/mL]	MIC [3] [µg/mL]	MIC [4] [µg/mL]	MIC [5] [µg/mL]	MIC [6] [µg/mL]	MIC [7] [µg/mL]	MIC [8] [µg/mL]	MIC [9] [µg/mL]	MIC [10] [µg/mL]	MIC [11] [µg/mL]	MIC [12] [µg/mL]	MIC [13] [µg/mL]	MIC [14] [µg/mL]	MIC [15] [µg/mL]	MIC [16] [µg/mL]	MIC [17] [µg/mL]	MIC [18] [µg/mL]	MIC [19] [µg/mL]	MIC [20] [µg/mL]	also measured
CC(C)CC1NC(=O)C(C(=O)NCCC(=O)N[C@@H](C(=O)N[C@@H]2C(=O)N3C(C(=O)O)=C(Cl)CS[C@H]23)c2ccccc2)=C1O (some centres not stated)	50 (≈ 80.6 µM)	> 200	1.56 (≈ 2.52 µM)	1.56 (≈ 2.52 µM)	> 200	100 (≈ 161 µM)	0.78 (≈ 1.26 µM)	0.78 (≈ 1.26 µM)	> 200	> 200	12.5 (≈ 20.2 µM)	50 (≈ 80.6 µM)	0.39 (≈ 0.629 µM)	12.5 (≈ 20.2 µM)	12.5 (≈ 20.2 µM)	25 (≈ 40.3 µM)	–	–	–	–	–
N[C@@H](C(=O)N[C@@H]1C(=O)N2C(C(=O)O)=C(Cl)CS[C@H]12)c1ccccc1 [CEFACLOR ANHYDROUS]	200 (≈ 544 µM)	> 200	0.39 (≈ 1.06 µM)	3.13 (≈ 8.51 µM)	> 200	25 (≈ 68 µM)	< 0.2	1.56 (≈ 4.24 µM)	> 200	> 200	6.25 (≈ 17 µM)	1.56 (≈ 4.24 µM)	0.78 (≈ 2.12 µM)	0.39 (≈ 1.06 µM)	6.25 (≈ 17 µM)	100 (≈ 272 µM)	> 200	200 (≈ 544 µM)	> 200	1.56 (≈ 4.24 µM)	MIC [21]: 50 µg/mL (≈ 136 µM); MIC [22]: 50 µg/mL (≈ 136 µM); MIC [23]: 1.56 µg/mL (≈ 4.24 µM); MIC [24]: 12.5 µg/mL (≈ 34 µM); MIC [25]: 50 µg/mL (≈ 136 µM); MIC [26]: 1.56 µg/mL (≈ 4.24 µM); MIC [27]: > 200 µg/mL; MIC [28]: 200 µg/mL (≈ 544 µM); MIC [29]: 12.5 µg/mL (≈ 34 µM)
CO[C@@]1(NC(=O)C2SC(=C(C(N)=O)C(=O)O)S2)C(=O)N2C(C(=O)O)=C(CSc3nnnn3C)CS[C@@H]21 (some centres not stated) [CEFOTETAN]	100 (≈ 174 µM)	> 200	–	< 0.2	–	–	–	–	–	–	1.56 (≈ 2.71 µM)	< 0.2	–	–	25 (≈ 43.4 µM)	–	1.56 (≈ 2.71 µM)	< 0.2	25 (≈ 43.4 µM)	0.39 (≈ 0.678 µM)	MIC [21]: 12.5 µg/mL (≈ 21.7 µM); MIC [22]: 0.39 µg/mL (≈ 0.678 µM); MIC [23]: < 0.2 µg/mL; MIC [24]: 0.78 µg/mL (≈ 1.36 µM); MIC [25]: < 0.2 µg/mL; MIC [26]: 0.39 µg/mL (≈ 0.678 µM); MIC [27]: 1.56 µg/mL (≈ 2.71 µM); MIC [28]: 1.56 µg/mL (≈ 2.71 µM); MIC [29]: 1.56 µg/mL (≈ 2.71 µM)
CC(C)CC1NC(=O)C(C(=O)NCCCC(=O)N[C@@H](C(=O)N[C@@H]2C(=O)N3[C@@H]2SC(C)(C)[C@@H]3C(=O)O)c2ccccc2)=C1O (some centres not stated)	100 (≈ 162 µM)	50 (≈ 81.2 µM)	0.39 (≈ 0.633 µM)	1.56 (≈ 2.53 µM)	25 (≈ 40.6 µM)	25 (≈ 40.6 µM)	3.13 (≈ 5.08 µM)	0.78 (≈ 1.27 µM)	25 (≈ 40.6 µM)	> 200	12.5 (≈ 20.3 µM)	> 200	< 0.2	3.13 (≈ 5.08 µM)	25 (≈ 40.6 µM)	50 (≈ 81.2 µM)	–	–	–	–	–
CC(C)CC1NC(=O)C(C(=O)N[C@@H](C(=O)N[C@@H]2C(=O)N3[C@@H]2SC(C)(C)[C@@H]3C(=O)O)c2ccccc2)=C1O (some centres not stated)	50 (≈ 94.2 µM)	12.5 (≈ 23.6 µM)	0.39 (≈ 0.735 µM)	12.5 (≈ 23.6 µM)	12.5 (≈ 23.6 µM)	25 (≈ 47.1 µM)	3.13 (≈ 5.9 µM)	0.78 (≈ 1.47 µM)	6.25 (≈ 11.8 µM)	> 200	6.25 (≈ 11.8 µM)	200 (≈ 377 µM)	0.39 (≈ 0.735 µM)	3.13 (≈ 5.9 µM)	50 (≈ 94.2 µM)	25 (≈ 47.1 µM)	–	–	–	–	–
CC(C)CC1NC(=O)C(C(=O)NCCCCCC(=O)N[C@@H](C(=O)N[C@@H]2C(=O)N3[C@@H]2SC(C)(C)[C@@H]3C(=O)O)c2ccccc2)=C1O (some centres not stated)	100 (≈ 155 µM)	50 (≈ 77.7 µM)	< 0.2	6.25 (≈ 9.71 µM)	50 (≈ 77.7 µM)	25 (≈ 38.8 µM)	3.13 (≈ 4.86 µM)	0.78 (≈ 1.21 µM)	25 (≈ 38.8 µM)	> 200	12.5 (≈ 19.4 µM)	> 200	< 0.2	3.13 (≈ 4.86 µM)	50 (≈ 77.7 µM)	50 (≈ 77.7 µM)	–	–	–	–	–

Reference: ChEMBL document CHEMBL4229518, “New β-lactam - Tetramic acid hybrids show promising antibacterial activities” (Bioorg Med Chem Lett, 2018)
